Reference: patent US20250154548A1, “CONTROL OF ENZYMATIC NUCLEIC ACID SYNTHESIS VIA ELECTROCHEMICAL MEANS” (The Charles Stark Draper Laboratory, Inc., priority 2023, published 2025)

How the values were obtained:
[1] = target: wild-type TdT (Mus musculus, UniProt P09838); assay: TdT extension assay with DNA-intercalating dye (SYTO 13); assay type: biochemical; conditions: metal cofactor MnCl2 pre-incubated with chelator; free nucleotides, ssDNA oligomer
Protocol: FIG. 14 provides data from an extension assay wherein wild-type TdT is incubated with a single-stranded DNA oligomer in the presence of free nucleotides and a DNA-intercalating dye (SYTO 13). As DNA synthesis occurs, fluorescent signal increases as more interactions of the intercalating dye with the ssDNA leads to higher fluorescent signal.

[2] = target: T1, TdT-dNTP conjugates (C7-C) (Mus musculus, UniProt P09838, C155A/C188A/C216N/C302P/C378E/C404A/C438A/D179A/D325G/D356E/D411H/D441E/D501E/E183G/E226Q/E418G/E487R/F267Y/F368W/G227E/G413Q/H416D/I229L/K247Q/K250C/K276D/L167K/L260P/L327T/L381Q/M192R/M313Q/M339K/M471L/N304T/Q166K/Q278R/Q287R/Q359K/Q371K/Q390L/R483N/S195A/S223R/S248A/S275E/S282T/S312E/T321Q/T465R/V311I/V320W/V484T); assay: Bead-based TdT extension assay; assay type: biochemical; conditions: for inhibition of TdT extension: various chelator concentrations
T1 construct: nucleotide (dNTP) covalently tethered through a cleavable linker; That it is dCTP and sits on Cys102 is my inference from the name C7-C and from K102C
Protocol: Extension assay was performed for 2 minutes at 37° C.
The ability of chelators to inhibit stepwise addition of nucleotides via TdT-dNTP conjugates was tested using a bead based assay: Magnetic beads (Dynabeads MyOne streptavidin beads (C1)) were functionalized with biotinylated, double-stranded DNA (dsDNA) that contains a 3′ 30-base overhang, which serves as the seed oligo for extension. Beads were prepared in buffer (20 mM potassium phosphate, 100 mM NaCl, pH 6.5) and washed with 3 times with Superblock prior to use. TdT-dNTP conjugates were prepared at 10 μM concentrations in buffer solution (20 mM potassium phosphate buffer, 100 mM NaCl, pH 6.5). Chelators and MnCl2 solutions were prepared at appropriate ratios (in water) so that final reaction concentrations were at 125 nM in MnCl2 and incubated for 10 minutes at room temperature. Once incubation was complete, TdT-dNTP conjugates were added to the chelator/MnCl2 solutions so that TdT-dNTP conjugates were at a final concentration of 5 μM. As controls, solutions with no chelator or with TCEP (for recovery activity) were also prepared.
Once all reagents were prepared, ds-DNA functionalized beads (10 μL volume) were added to low-bind Eppendorf tubes, followed by the TdT-dNTP conjugate/chelator/MnCl2 solution (50 μL total reaction volume). The tubes were incubated at 37° C. for 2 min, then tubes were placed on ice for 1 min. The beads were washed by placing tubes on a magnetic tube rack three times with 1 mL of buffer (20 mM potassium phosphate, 100 mM NaCl, pH 6.5). To elute the ssDNA from the washed beads, the tubes were placed in the magnetic rack, and the supernatant was removed and replaced with 0.1 M NaOH (aq). After thorough mixing with a pipette and re-settling of the beads using the magnetic rack, the supernatant was transferred to a fresh low-bind tube, and 50 μL of 0.1 M HCl (aq) was added to neutralize the solution.
Sequencing sample preparation began with polyadenylation (for sequences expected to end in thymine, cytosine, or guanine) or the addition of a poly(T) tail (for sequences expected to end in adenine) to the 3′ end of each DNA sample using commercial TdT. The samples were then amplified using primers that bind to a conserved 5′ sequence and the complementary 3′ tail while incorporating Illumina sequencing priming sites into the synthesized amplicons. This step was performed using qPCR in order to achieve optimal amplification of all samples regardless of input DNA concentration. A portion of each PCR product was analyzed by gel electrophoresis to confirm the size and relative abundance of the amplicons. The products of all samples were then normalized based on relative abundance and used as template for a second PCR reaction, which incorporated Illumina flow cell adaptors and a variable index into each sample. The products of the final PCR reaction were characterized by gel electrophoresis and all indexed samples were pooled together proportionally based on relative abundance. Size selection and purification of the pooled library was performed by DNA gel extraction and the final library was analyzed by Qubit dsDNA HS assay and Tapestation D1000 screentape to determine the final molar concentration. The library was then diluted, denatured and sequenced following standard Illumina protocols.

[3] = FLPA fluorescence intensity versus bulk electrolyte pH calibration; assay type: physicochemical; conditions: from fluorescence intensity vs pH
From the text: FIGS. 3A-C show how voltage-induced pH change can be visualized in real-time with a freely diffusing non-electroactive fluorescent probe. […] A large Pt counter electrode (CE, anode) surrounds a smaller Pt working electrode (WE, cathode). The two electrodes are separated by a 10 μm dielectric SiO2 region. The WE (410 μm×510 μm) contains a microarray of 300-nm diameter wells that cannot be optically resolved but appear as a smaller square region (˜250 μm×325 μm), made brighter by optical interference. The microarray is used as the region of interest (ROI) for all subsequent analysis. Images were acquired with an Excelitas X-Cite Xylis XT720S (360-720 nm LED) source, 1s exposure time, and GFP (525/50 nm) filter set.
Data points represent the average of three technical replicates, and error bars represent one standard deviation. The intensity follows a sigmoidal relationship as the fraction of deprotonated, fluorescent FLPA (inset) increases with pH (pKa˜6.5). Thus, FLPA is sensitive to an acid-OFF/neutral-ON pH switch over pH 5 to 8. The visualization strategy is amenable to other non-electroactive probes with different pKa values.

[4] = 5 μM C7-C, 0.250 mM Mn2+, 2 minutes at 37° C.

T1 sequence (P09838 149-510 with the stated changes): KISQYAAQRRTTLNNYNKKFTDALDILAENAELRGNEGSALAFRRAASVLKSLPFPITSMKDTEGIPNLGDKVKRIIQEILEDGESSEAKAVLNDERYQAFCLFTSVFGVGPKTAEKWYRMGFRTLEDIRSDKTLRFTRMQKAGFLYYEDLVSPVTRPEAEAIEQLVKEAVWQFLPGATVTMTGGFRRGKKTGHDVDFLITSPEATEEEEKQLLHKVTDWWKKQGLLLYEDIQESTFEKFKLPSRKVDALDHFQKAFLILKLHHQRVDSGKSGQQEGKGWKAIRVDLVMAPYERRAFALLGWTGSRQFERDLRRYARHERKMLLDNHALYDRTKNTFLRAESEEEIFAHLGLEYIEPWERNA
Sequence of wild-type TdT (P09838 149-510): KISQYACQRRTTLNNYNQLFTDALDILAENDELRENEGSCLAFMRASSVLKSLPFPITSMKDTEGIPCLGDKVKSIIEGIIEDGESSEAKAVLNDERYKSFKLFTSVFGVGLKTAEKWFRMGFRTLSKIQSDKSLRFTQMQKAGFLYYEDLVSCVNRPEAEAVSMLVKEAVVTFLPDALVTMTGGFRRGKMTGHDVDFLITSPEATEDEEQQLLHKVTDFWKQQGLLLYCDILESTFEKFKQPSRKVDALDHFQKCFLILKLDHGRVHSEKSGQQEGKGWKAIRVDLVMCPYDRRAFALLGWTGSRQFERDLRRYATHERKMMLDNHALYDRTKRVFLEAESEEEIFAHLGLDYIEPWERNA

## O=C(NCCc1ccc(O)c(O)c1)OCCSSCCOC(=O)NCCc1ccc(O)c(O)c1 [catechol 1, disulfanediylbis(ethane-2,1-diyl) bis((3,4-dihydroxyphenethyl)carbamate)]
[1]
  assayed ssDNA growth (fluorescent signal): no assayed ssDNA growth is observed
[2]; TCEP reducing agent added, chelator cleaved
  TdT activity with chelator pre-incubated with reducing agent TCEP: TdT activity is recovered
[2]; [4]
  inhibition of TdT extension: inhibition dependence on feed ratio of metal to inhibitor and choice of chelator

## c1ccc(SSc2ccccn2)nc1 [DTP, 2,2′-dithiopyridine, reference compound]
[2]; [4]
  inhibition of TdT extension: inhibition dependence on feed ratio of metal to inhibitor

## O=C(O)CN(CC(=O)O)C(=O)OCCSSCCOC(=O)N(CC(=O)O)CC(=O)O [tetraacid 2, 3,14-bis(carboxymethyl)-4,13-dioxo-5,12-dioxa-8,9-dithia-3,14-diazahexadecanedioic acid]
[1]
  assayed ssDNA growth (fluorescent signal): no assayed ssDNA growth is observed
[2]; [4]
  inhibition of TdT extension: inhibition dependence on feed ratio of metal to inhibitor and choice of chelator

## O=C(O)CN(CCN(CC(=O)O)CC(=O)O)CC(=O)O [EDTA, Ethylenediaminetetraacetic Acid, reference compound]
[1]
  assayed ssDNA growth (fluorescent signal): little-to-no-assayed ssDNA growth
[2]; various chelator:metal ratios, 5 μM C7-C, 0.250 mM Mn2+, 2 minutes at 37° C.
  fraction of extended sequences: markedly decreased

## NCCOCCOCCOCCOCCOCCOCCNC(=S)Nc1ccc2c(c1)C(=O)OC21c2ccc(O)cc2Oc2cc(O)ccc21 [FLPA, fluorescein-PEG6-amine]
[3]
  pKa: ~6.5
